According to patent publication US20230391748A1, “BICYCLIC INHIBITORS OF IRAK” (priority 2022, published 2023):
pIC50: −log10 of the molar value.

Assays:
IRAK4 = IRAK4 (Homo sapiens (Human), UniProt Q9NWZ3); test: IRAK4 ADP-Glo Assay; format: biochemical; settings: MBP substrate
Summary of the method: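 Human IRAK4 kinase reaction with MBP substrate plus ATP in Tris-HCl/MgCl2/BSA/DTT buffer, pH 7.4, run 60 min at room temperature or 30 min at 30 °C. ADP formed was measured by ADP-Glo luminescence after ATP depletion (40 min) and detection reagent (30 min).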

IL23p19 in THP-1 Cells = test: LPS Induced IL23p19 in THP-1 Cells (with IFNγ Primed) Assay; format: cell-based; settings: Homo sapiens, THP-1, 18 h, read-out: IL23 (THP, LPS) (IC50, μM)
Summary of the method: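 THP-1 cells (50K/well) primed with IFNγ (50 ng/mL) about 18 h, then given compound and stimulated with LPS for 18 h at 37 °C. Secreted IL-23p19 measured by sandwich ELISA with chemiluminescent read-out, giving EC50. Cell Titer Glo used on the remaining cells for toxicity.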

TNF-α in human PBMCs = test: R848-induced TNF-α in human PBMCs Assay; format: cell-based; settings: Homo sapiens, PBMC, 4 h, read-out: TNFα (PBMC, R848) (IC50, μM)
Summary of the method: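 Human PBMCs at 200K/well were pretreated with compound, then R848-stimulated for 4 h at 37 °C, 5% CO2. Supernatant TNF-α quantified by chemiluminescent ELISA; EC50 from curve fitting.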

[1] = tested on: TNF-α in Human Primary Monocyte-Derived Dendritic Cells; test: Gardiquimod-Induced TNF-α in Human Primary Monocyte-Derived Dendritic Cells; format: cell-based; settings: Dendritic cell, IFNγ-primed monocyte-derived dendritic cells, 4 μg/ml Gardiquimod, 6 hours, TNF-α ELISA, read-out: TNFα (DC, GARD) (IC50)
Summary of the method: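 Monocytes differentiated 7 days with GM-CSF and IL-4, then primed 24 h with 50 ng/ml IFN-γ. Compound added 1 h before 6 h stimulation with 4 μg/ml Gardiquimod, 0.5% DMSO final. Supernatant TNF-α measured by chemiluminescent ELISA; EC50 from curve fitting.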

Sequence of IRAK4 (Q9NWZ3 whole entry): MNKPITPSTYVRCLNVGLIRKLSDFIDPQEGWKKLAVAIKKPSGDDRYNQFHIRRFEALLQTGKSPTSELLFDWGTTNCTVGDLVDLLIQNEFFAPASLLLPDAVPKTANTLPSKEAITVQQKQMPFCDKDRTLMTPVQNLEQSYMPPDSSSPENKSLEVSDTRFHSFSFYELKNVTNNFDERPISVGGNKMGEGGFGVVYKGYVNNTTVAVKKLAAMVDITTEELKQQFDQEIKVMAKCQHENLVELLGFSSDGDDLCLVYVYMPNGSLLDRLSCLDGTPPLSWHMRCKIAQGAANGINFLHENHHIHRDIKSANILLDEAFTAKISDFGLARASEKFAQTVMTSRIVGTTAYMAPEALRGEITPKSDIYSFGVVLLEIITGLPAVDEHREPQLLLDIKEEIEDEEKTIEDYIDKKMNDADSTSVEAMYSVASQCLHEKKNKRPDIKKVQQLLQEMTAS

SMILES	pIC50 (IRAK4)	IC50 (IL23p19 in THP-1 Cells)	IC50 (TNF-α in human PBMCs)	pIC50 [1]
CC(C)Oc1cc2c(OC[C@@H]3CCC(=O)N3)ncc(C#CC3CCNCC3)c2cc1C(N)=O [Compound I-17, (S)-7-isopropoxy-1-((5-oxopyrrolidin-2-yl)methoxy)-4-(piperidin-4-ylethynyl)isoquinoline-6-carboxamide]	8.77	11.2 µM	1.33 µM	4.77
CC(C)Oc1cc2c(OC[C@@H]3CCC(=O)N3)ncc(-c3cnn(C4CCC4)c3)c2cc1C(N)=O [Compound I-33, (S)-4-(1-cyclobutyl-1H-pyrazol-4-yl)-7-isopropoxy-1-((5-oxopyrrolidin-2-yl)methoxy)isoquinoline-6-carboxamide]	8.12	0.2 µM	0.272 µM	6.66
CC(C)Oc1cc2c(OC[C@@H]3CCC(=O)N3)ncc(-c3cnn(CC4CCOCC4)c3)c2cc1C(N)=O [Compound I-36, (S)-7-isopropoxy-1-((5-oxopyrrolidin-2-yl)methoxy)-4-(1-((tetrahydro-2H-pyran-4-yl)methyl)-1H-pyrazol-4-yl)isoquinoline-6-carboxamide]	7.87	0.976 µM	0.377 µM	6.40
CC(C)Oc1cc2c(OC[C@@H]3CC(F)(F)C(=O)N3)ncc(-c3cnn(C4CC4)c3)c2cc1C(N)=O [Compound I-67, (S)-4-(1-cyclopropyl-1H-pyrazol-4-yl)-1-((4,4-difluoro-5-oxopyrrolidin-2-yl)methoxy)-7isopropoxyisoquinoline-6-carboxamide]	8.20	0.608 µM	0.0472 µM	6.23
CC(C)Oc1cc2c(O[C@@H]3CCCN(C(=O)CC#N)C3)ncc(-c3cnn(CC4CCOCC4)c3)c2cc1C(N)=O [Compound I-118, (R)-1-((1-(2-cyanoacetyl)piperidin-3-yl)oxy)-7-isopropoxy-4-(1-((tetrahydro-2H-pyran-4-yl)methyl)-1H-pyrazol-4-yl)isoquinoline-6-carboxamide]	7.69	4.2 µM	6.5 µM	5.83
CC(C)Oc1cc2c(OC[C@@H]3CCC(=O)N3)ncc(C#C[C@H]3CC[C@](C)(O)CC3)c2cc1C(N)=O [Compound I-22, 4-(((1r,4S)-4-hydroxy-4-methylcyclohexyl)ethynyl)-7-isopropoxy-1-(((S)-5-oxopyrrolidin-2-yl)methoxy)isoquinoline-6-carboxamide]	7.91	0.208 µM	0.049 µM	7.14
CC(C)Oc1cc2c(OC[C@@H]3CC(F)(F)C(=O)N3)ncc(C#CC3(O)CCN(C)CC3)c2cc1C(N)=O [Compound I-57, (S)-1-((4,4-difluoro-5-oxopyrrolidin-2-yl)methoxy)-4-((4-hydroxy-1-methylpiperidin-4-yl)ethynyl)-7-isopropoxyisoquinoline-6-carboxamide]	8.35	7.39 µM	0.468 µM	6.20
CC(C)Oc1cc2c(OC[C@@H]3CCC(=O)N3)ncc(C#CC3(O)CCNCC3)c2cc1C(N)=O [Compound I-13, (S)-4-((4-hydroxypiperidin-4-yl)ethynyl)-7-isopropoxy-1-((5-oxopyrrolidin-2-yl)methoxy)isoquinoline-6-carboxamide]	7.83	4.64 µM	4.67 µM	5.46
CC(C)Oc1cc2c(OC[C@@H]3CCC(=O)N3)ncc(C#CC3(O)CCCC3)c2cc1C(N)=O [Compound I-9, (S)-4-((1-hydroxycyclopentyl)ethynyl)-7-isopropoxy-1-((5-oxopyrrolidin-2-yl)methoxy)isoquinoline-6-carboxamide]	8.00	0.394 µM	0.319 µM	6.68
CCO[C@H]1CC[C@H](n2cc(-c3cnc(O[C@@H]4CCCN(C(=O)CC#N)C4)c4cc(OC(C)C)c(C(N)=O)cc34)cn2)CC1 [Compound I-124, 1-(((R)-1-(2-cyanoacetyl)piperidin-3-yl)oxy)-4-(1-(trans-4-ethoxycyclohexyl)-1H-pyrazol-4-yl)-7-isopropoxyisoquinoline-6-carboxamide]	8.17	0.609 µM	12.2 µM	6.45
CC(C)Oc1cc2c(O[C@@H]3CCCN(C(=O)CC#N)C3)ncc(C#CC3(O)CCN(C(=O)OC(C)(C)C)CC3)c2cc1C(N)=O [Compound I-92, tert-butyl (R)-4-((6-carbamoyl-1-((1-(2-cyanoacetyl)piperidin-3-yl)oxy)-7-isopropoxyisoquinolin-4-yl)ethynyl)-4-hydroxypiperidine-1-carboxylate]	6.85	4.92 µM	3.7 µM	4.86
CCO[C@H]1CC[C@H](C#Cc2cnc(OC[C@@H]3CCC(=O)N3)c3cc(OC(C)C)c(C(N)=O)cc23)CC1 [Compound I-20, 4-(((1r,4S)-4-ethoxycyclohexyl)ethynyl)-7-isopropoxy-1-(((S)-5-oxopyrrolidin-2-yl)methoxy)isoquinoline-6-carboxamide]	8.15	0.11 µM	0.0688 µM	7.20
CC(C)Oc1cc2c(OC[C@@H]3CCC(=O)N3)ncc(-c3cnn([C@H]4CC[C@@](C)(O)CC4)c3)c2cc1C(N)=O [Compound I-41, 4-(1-((1s,4R)-4-hydroxy-4-methylcyclohexyl)-1H-pyrazol-4-yl)-7-isopropoxy-1-(((S)-5-oxopyrrolidin-2-yl)methoxy)isoquinoline-6-carboxamide]	7.42	4.61 µM	0.509 µM	5.00
CC(C)Oc1cc2c(OC[C@@H]3CC(F)(F)C(=O)N3)ncc(C#CC3CN(C(=O)OC(C)(C)C)C3)c2cc1C(N)=O [Compound I-62, tert-butyl (S)-3-((6-carbamoyl-1-((4,4-difluoro-5-oxopyrrolidin-2-yl)methoxy)-7-isopropoxyisoquinolin-4-yl)ethynyl)azetidine-1-carboxylate]	7.71	0.0219 µM	0.001 µM	8.68
CC(C)Oc1cc2c(OC[C@@H]3CCC(=O)N3)ncc(-c3cnn(CCC4CCOCC4)c3)c2cc1C(N)=O [Compound I-37, (S)-7-isopropoxy-1-((5-oxopyrrolidin-2-yl)methoxy)-4-(1-(2-(tetrahydro-2H-pyran-4-yl)ethyl)-1H-pyrazol-4-yl)isoquinoline-6-carboxamide]	7.86	1.34 µM	0.324 µM	6.53
CC(C)Oc1cc2c(OC[C@@H]3CCC(=O)N3)ncc(-c3cn[nH]c3)c2cc1C(N)=O [Compound I-47, (S)-7-isopropoxy-1-((5-oxopyrrolidin-2-yl)methoxy)-4-(1H-pyrazol-4-yl)isoquinoline-6-carboxamide]	8.12	2.73 µM	0.816 µM	5.73
CC(C)Oc1cc2c(OC[C@@H]3CC(F)(F)C(=O)N3)ncc(C#CC3CCNCC3)c2cc1C(N)=O [Compound I-55, (S)-1-((4,4-difluoro-5-oxopyrrolidin-2-yl)methoxy)-7-isopropoxy-4-(piperidin-4-ylethynyl)isoquinoline-6-carboxamide]	8.46	4 µM	1.2 µM	5.92
CC(C)Oc1cc2c(O[C@@H]3CCCNC3)ncc(-c3cnn(CC4CCOCC4)c3)c2cc1C(N)=O [Compound I-112, (R)-7-isopropoxy-1-(piperidin-3-yloxy)-4-(1-((tetrahydro-2H-pyran-4-yl)methyl)-1H-pyrazol-4-yl)isoquinoline-6-carboxamide]	6.55	13.6 µM	3.95 µM	5.04
COC(=O)N1CC(C#Cc2cnc(OC[C@@H]3CCC(=O)N3)c3cc(OC(C)C)c(C(N)=O)cc23)C1 [Compound I-28, methyl (S)-3-((6-carbamoyl-7-isopropoxy-1-((5-oxopyrrolidin-2-yl)methoxy)isoquinolin-4-yl)ethynyl)azetidine-1-carboxylate]	8.20	0.14 µM	0.0331 µM	6.96
CC(C)Oc1cc2c(O[C@@H]3CCCN(C(=O)CC#N)C3)ncc(C#C[C@H]3CC[C@](C)(O)CC3)c2cc1C(N)=O [Compound I-100, 1-(((R)-1-(2-cyanoacetyl)piperidin-3-yl)oxy)-4-(((1r,4R)-4-hydroxy-4-methylcyclohexyl)ethynyl)-7-isopropoxyisoquinoline-6-carboxamide]	7.46	0.96 µM	3.3 µM	5.85
CC(C)Oc1cc2c(O[C@@H]3CCCNC3)ncc(-c3cnn(C4CCC4)c3)c2cc1C(N)=O [Compound I-109, (R)-4-(1-cyclobutyl-1H-pyrazol-4-yl)-7-isopropoxy-1-(piperidin-3-yloxy)isoquinoline-6-carboxamide]	6.77	34.9 µM	2.55 µM	5.84
